Measurements as given in patent publication US11643429B2, “Compounds and methods for the treatment of ocular disorders” (Azura Ophthalmics Ltd., priority 2019, dated 2023).

Columns and labels:
[1] = Rabbit Cornea Homogenate Stability Assay (Rabbit Cornea Esterase Assay); type: in vitro ADME; conditions: New Zealand White, 37° C., half-life of parent conjugate
Protocol: Determining Rabbit Cornea Homogenate stability of the test compounds was performed using HPLC-MS. The assay was performed at two concentrations of Rabbit Cornea Homogenate (0.15 mg/ml and 0.45 mg/ml total protein) so that any hydrolysis observed could be assigned as esterase dependent or not.
Five rabbit corneas (e.g. New Zealand Whites) of approx. 50 mg each were sliced and scraped with a scalpel and tweezers until reduced to small (1-3 mm), thin pieces. These were transferred into a tared vial and accurately weighed, then diluted with 10 volumes aqueous PBS pH7.4
Sample was cooled intermittently on ice and shear homogenized for 3 minutes, then centrifuged for 3 min at 3000 rpm. The supernatant was pipetted off into a vial, and total protein concentration determined at 280 nm. Sample was stored at −78° C.
10 mM Compound stocks were diluted to 100 μM in a 96 deep-well plate: 10 μl of 10 mM Compound stock was added to 990 μl 50 mM HEPES, pH7.5 buffer.
Compounds were further diluted to 10 μM: 100 μl of 100 μM compound was added to 900 μl 50 mM HEPES, pH7.5 buffer.
Esterase homogenate was diluted to 300 ng/μl and 900 ng/μl
A heater shaker was set to 37° C. Into a suitable 96 well plate (Run Plate), 75 μl of 300 or 900 ng/μl esterase homogenate was pipetted into each of the required wells (2 min, 5 min, 10 min, 20 min and 45 min). The plate was sealed and then warmed at 37° C. for 5 min. Another 96 well PCR plate was put on ice (Kill Plate). To this was added 100 μl of MeCN to each well, labelled 0 min 2 min, 5 min, 10 min, 20 min and 45 min. The plate was covered to minimise evaporation. For the T=0 sample only, to the 100 μl cold MeCN stop solution was added 50 μl of 300 or 900 ng/μl esterase homogenate followed by 50 μl of 10 μM compound solution For the remaining timepoints, 75 μl of 10 μM compound solution was added to the Run Plate starting from T=45 min row and ending with T=2 min row. At the appropriate time point, 100 μl of the assay mixture was added to the matching kill plate well containing 100 μl of cold MeCN. Samples were analysed as soon as practicable by LCMS (Waters Xevo TQ-S or Micromass Ultima). Parent conjugate and parent concentrations were determined against appropriate standard response curves and the half-life (T1/2) of the parent conjugate was calculated using the peak area of the parent conjugate at each time point in the linear region of the log-linear plot.

[2] = Aqueous Hydrolysis Stability Assay; type: physicochemical; conditions: 50 mM HEPES buffer pH 7.5; HEPES pH 7.5, room temperature; read-out: T1/2 Aq Stability
Protocol: Determination of aqueous stability of the test compounds was performed using HIPLC-MS. A test compound 10 mM stock solution was prepared in DMSO. 10 μl of the DMSO stock solution was dissolved in 990 μl of 50 mM HEPES pH 7.5 buffer or 1:1 (v/v) of Acetonitrile:Water to make a 100 μM solution. Final DMSO concentration was 1%. The solution was kept at room temperature and injected without delay into the LCMS (Waters Xevo TQ-S or Micromass Ultima). Additional injections were performed at appropriate time points. Half-life (T1/2) of the parent conjugate was calculated using the peak area of the parent conjugate at each time point in the linear region of the log-linear plot.

[3] = Aqueous Hydrolysis Stability Assay; type: physicochemical; conditions: New Zealand White, rabbit, rabbit cornea homogenate (esterase assay) in HEPES buffer, pH 7.5; ND, estimated from esterase assay; read-out: T1/2 Aq Stability
[4] = pH 7.5, Rabbit Cornea Homogenate 0.15 mg/ml total protein, read-out: T1/2 Esterase (min) (0.15 mg/ml Homogenate)
[5] = pH 7.5, Rabbit Cornea Homogenate 0.45 mg/ml total protein, read-out: T1/2 Esterase (min) (0.45 mg/ml Homogenate)

| Compound | half-life at 5 µM [1, 4] | half-life at 5 µM [1, 5] | half-life at 100 µM [2] | half-life at 5 µM [3] |
| --- | --- | --- | --- | --- |
| CC[C@H]1OC(=O)[C@H](C)[C@@H](O[C@H]2C[C@@](C)(OC)[C@@H](O)[C@H](C)O2)[C@H](C)[C@@H](O[C@@H]2O[C@H](C)C[C@H](N(C)C)[C@H]2OC(=O)Cc2ccc(OC)cc2)[C@](C)(O)C[C@@H](C)CN(C)[C@H](C)[C@@H](O)[C@]1(C)O [Compound 3, (2S,3R,4S,6R)-4-(Dimethylamino)-2-(((2R,3S,4R,5R,8R,10R,11R,12S,13S,14R)-2-ethyl-3,4,10-trihydroxy-13-(((2R,4R,5S,6S)-5-hydroxy-4-methoxy-4,6-dimethyltetrahydro-2H-pyran-2-yl)oxy)-3,5,6,8,10,12,14-heptamethyl-15-oxo-1-oxa-6-azacyclopentadecan-1-yl)oxy)-6-methyltetrahydro-2H-pyran-3-yl 2-(4-methoxyphenyl)acetate] | 35 min | 39 min | 42 min |  |
| CC[C@H]1OC(=O)[C@H](C)[C@@H](O[C@H]2C[C@@](C)(OC)[C@@H](O)[C@H](C)O2)[C@H](C)[C@@H](O[C@@H]2O[C@H](C)C[C@H](N(C)C)[C@H]2OC(=O)CCOCCOCCOCCOCCO)[C@](C)(O)C[C@@H](C)CN(C)[C@H](C)[C@@H](O)[C@]1(C)O [Compound 5, (2S,3R,4S,6R)-4-(Dimethylamino)-2-(((2R,3S,4R,5R,8R,10R,11R,12S,13S,14R)-2-ethyl-3,4,10-trihydroxy-13-(((2R,4R,5S,6S)-5-hydroxy-4-methoxy-4,6-dimethyltetrahydro-2H-pyran-2-yl)oxy)-3,5,6,8,10,12,14-heptamethyl-15-oxo-1-oxa-6-azacyclopentadecan-11-yl)oxy)-6-methyltetrahydro-2H-pyran-3-yl 1-hydroxy-3,6,9,12-tetraoxapentadecan-15-oate] | 21 min | 24 min | 72 min |  |
| CC[C@H]1OC(=O)[C@H](C)[C@@H](O[C@H]2C[C@@](C)(OC)[C@@H](O)[C@H](C)O2)[C@H](C)[C@@H](O[C@@H]2O[C@H](C)C[C@H](N(C)C)[C@H]2OC(=O)O[C@H](C)C(=O)OC)[C@](C)(O)C[C@@H](C)CN(C)[C@H](C)[C@@H](O)[C@]1(C)O [Compound 10, Methyl (R)-2-(((((2S,3R,4S,6R)-4-(dimethylamino)-2-(((2R,3S,4R,5R,8R,10R,11R,12S,13S,14R)-2-ethyl-3,4,10-trihydroxy-13-(((2R,4R,5S,6S)-5-hydroxy-4-methoxy-4,6-dimethyltetrahydro-2H-pyran-2-yl)oxy)-3,5,6,8,10,12,14-heptamethyl-15-oxo-1-oxa-6-azacyclopentadecan-11-yl)oxy)-6-methyltetrahydro-2H-pyran-3-yl)oxy)carbonyl)oxy)propanoate] | 53 min | 49 min |  | ~51 min |

Continued, values first:

| half-life at 5 µM [1, 4] | half-life at 5 µM [1, 5] | half-life at 100 µM [2] | half-life at 5 µM [3] | Compound |
| --- | --- | --- | --- | --- |
| > 120 min | > 120 min | > 120 min |  | CC[C@H]1OC(=O)[C@H](C)[C@@H](O[C@H]2C[C@@](C)(OC)[C@@H](O)[C@H](C)O2)[C@H](C)[C@@H](O[C@@H]2O[C@H](C)C[C@H](N(C)C)[C@H]2O)[C@](C)(O)C[C@@H](C)CN(C)[C@H](C)[C@@H](OC(=O)CO)[C@]1(C)O [Compound 11, (2R,3R,4R,5R,8R,10R,11R,12S,13S,14R)-11-(((2S,3R,4S,6R)-4-(Dimethylamino)-3-hydroxy-6-methyltetrahydro-2H-pyran-2-yl)oxy)-2-ethyl-3,10-dihydroxy-3-(((2R,4R,5S,6S)-5-hydroxy-4-methoxy-4,6-dimethyltetrahydro-2H-pyran-2-yl)oxy)-3,5,6,8,10,12,14-heptamethyl-15-oxo-1-oxa-6-azacyclopentadecan-4-yl 2-hydroxyacetate] |
| > 120 min | > 120 min | > 120 min |  | CC[C@H]1OC(=O)[C@H](C)[C@@H](O[C@H]2C[C@@](C)(OC)[C@@H](O)[C@H](C)O2)[C@H](C)[C@@H](O[C@@H]2O[C@H](C)C[C@H](N(C)C)[C@H]2O)[C@](C)(O)C[C@@H](C)CN(C)[C@H](C)[C@@H](OC(C)=O)[C@]1(C)O [Compound 12, (2R,3R,4R,5R,8R,10R,11R,12S,13S,14R)-11-(((2S,3R,4S,6R)-4-(Dimethylamino)-3-hydroxy-6-methyltetrahydro-2H-pyran-2-yl)oxy)-2-ethyl-3,10-dihydroxy-13-(((2R,4R,5S,6S)-5-hydroxy-4-methoxy-4,6-dimethyltetrahydro-2H-pyran-2-yl)oxy)-3,5,6,8,10,12,14-heptamethyl-15-oxo-1-oxa-6-azacyclopentadecan-4-yl acetate] |
| > 120 min | > 120 min | > 120 min |  | CC[C@H]1OC(=O)[C@H](C)[C@@H](O[C@H]2C[C@@](C)(OC)[C@@H](OC(C)=O)[C@H](C)O2)[C@H](C)[C@@H](O[C@@H]2O[C@H](C)C[C@H](N(C)C)[C@H]2O)[C@](C)(O)C[C@@H](C)CN(C)[C@H](C)[C@@H](O)[C@]1(C)O [Compound 13, (2S,3S,4R,6R)-6-(((2R,3S,4R,5R,8R,10R,11R,12S,13S,14R)-11-(((2S,3R,4S,6R)-4-(Dimethylamino)-3-hydroxy-6-methyltetrahydro-2H-pyran-2-yl)oxy)-2-ethyl-3,4,10-trihydroxy-3,5,6,8,10,12,14-heptamethyl-15-oxo-1-oxa-6-azacyclopentadecan-13-yl)oxy)-4-methoxy-2,4-dimethyltetrahydro-2H-pyran-3-yl acetate] |
| > 120 min | > 120 min | > 120 min |  | CC[C@H]1OC(=O)[C@H](C)[C@@H](O[C@H]2C[C@@](C)(OC)[C@@H](O)[C@H](C)O2)[C@H](C)[C@@H](O[C@@H]2O[C@H](C)C[C@H](N(C)C)[C@H]2OC(=O)SC[C@H](NC(C)=O)C(=O)OC)[C@](C)(O)C[C@@H](C)CN(C)[C@H](C)[C@@H](O)[C@]1(C)O [Compound 14, Methyl N-acetyl-S-((((2S,3R,4S,6R)-4-(dimethylamino)-2-(((2R,3S,4R,5R,8R,10R,11R,12S,13S,14R)-2-ethyl-3,4,10-trihydroxy-13-(((2R,4R,5S,6S)-5-hydroxy-4-methoxy-4,6-dimethyltetrahydro-2H-pyran-2-yl)oxy)-3,5,6,8,10,12,14-heptamethyl-15-oxo-1-oxa-6-azacyclopentadecan-11-yl)oxy)-6-methyltetrahydro-2H-pyran-3-yl)oxy)carbonyl)-L-cysteinate] |
